{"source": "paper PMC7391767", "about": "“Molecular mechanisms underlying menthol binding and activation of TRPM8 ion channel” (Nature Communications, 2020)", "key": {"[1]": {"biological_target": "T1, TRPM8 Y1005F (Mus musculus, UniProt Q8R4D5, Y1005F)", "T1 construct": "expressed in transfected cells; host or cells: HEK293T", "T1 sequence (Q8R4D5 whole entry Y1005F)": "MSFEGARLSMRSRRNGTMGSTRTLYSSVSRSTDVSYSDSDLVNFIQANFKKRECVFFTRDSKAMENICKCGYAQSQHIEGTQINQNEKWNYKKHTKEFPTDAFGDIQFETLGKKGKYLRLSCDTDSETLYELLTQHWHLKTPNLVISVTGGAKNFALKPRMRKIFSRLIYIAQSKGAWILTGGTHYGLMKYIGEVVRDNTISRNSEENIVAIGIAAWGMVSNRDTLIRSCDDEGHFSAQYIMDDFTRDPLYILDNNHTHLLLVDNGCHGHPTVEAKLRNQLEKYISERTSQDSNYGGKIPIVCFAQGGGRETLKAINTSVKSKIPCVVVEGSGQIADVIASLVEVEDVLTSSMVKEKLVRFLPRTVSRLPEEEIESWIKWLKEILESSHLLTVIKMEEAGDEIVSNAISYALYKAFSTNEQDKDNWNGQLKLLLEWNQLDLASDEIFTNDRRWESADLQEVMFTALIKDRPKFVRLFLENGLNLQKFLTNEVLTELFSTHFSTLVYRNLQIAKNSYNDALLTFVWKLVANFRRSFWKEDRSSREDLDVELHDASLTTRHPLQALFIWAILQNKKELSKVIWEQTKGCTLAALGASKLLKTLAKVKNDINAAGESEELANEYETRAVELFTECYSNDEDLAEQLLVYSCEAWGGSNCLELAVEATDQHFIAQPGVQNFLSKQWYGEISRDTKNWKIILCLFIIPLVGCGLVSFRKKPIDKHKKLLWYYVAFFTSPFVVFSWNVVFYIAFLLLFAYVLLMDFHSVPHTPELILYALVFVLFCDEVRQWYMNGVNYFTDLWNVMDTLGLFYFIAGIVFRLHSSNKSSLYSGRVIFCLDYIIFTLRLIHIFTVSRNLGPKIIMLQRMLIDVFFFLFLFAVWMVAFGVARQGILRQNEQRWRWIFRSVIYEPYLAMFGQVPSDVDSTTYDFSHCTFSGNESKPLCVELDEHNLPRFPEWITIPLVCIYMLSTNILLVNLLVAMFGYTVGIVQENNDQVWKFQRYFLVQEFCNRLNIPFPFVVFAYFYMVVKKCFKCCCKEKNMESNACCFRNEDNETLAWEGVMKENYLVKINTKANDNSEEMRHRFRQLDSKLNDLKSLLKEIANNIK", "assay": "whole-cell patch-clamp and thermodynamic mutant cycle analysis", "format": "cell-based", "settings": "patch-clamp, peer review file", "description": "(§1) Murine TRPM8 was used in this study. Point mutations were made by Fast Mutagenesis Kit V2 (SBS Genetech). Primers used to generate point mutations are summarized in Supplementary Table 2.\n(§2) HEK293T cells purchased from Kunming Cell Bank, Kunming Institute of Zoology, Chinese Academy of Sciences (ATCC, CRL-3216) were cultured in Dulbecco’s modified Eagle’s medium supplemented with 20 mM L-glutamine and 10% fetal bovine serum. Cells were transiently transfected with cDNA constructs by Lipofectamine 3000 (Life Technologies) following the manufacturer’s protocol. Patch-clamp recordings were performed 1–2 days after transfection.\n(§3) Patch-clamp recordings were performed with a HEKA EPC10 amplifier controlled by PatchMaster software (HEKA). Whole-cell recordings were performed at ±80 mV. Patch pipettes were prepared from borosilicate glass and fire-polished to resistance of ~4 MΩ. For whole-cell recording, serial resistance was compensated by 60%. For single-channel recordings, patch pipettes were fire-polished to a higher resistance of 6-to-10 MΩ and then recorded in the inside-out configuration. To maximize the chance of obtaining a patch with only one channel, single-channel recordings were performed about 8 h after transfection. A solution with 130 mM NaCl, 10 mM glucose, 0.2 mM EDTA, and 3 mM HEPES (pH 7.2) was used in both bath and pipette for either whole-cell or single-channel recordings. Membrane potential was clamped at +80 mV for single-channel recordings. Current was sampled at 10 kHz and filtered at 2.9 kHz. All recordings were performed at room temperature (22 °C) with the maximum variation of 1 °C.\n(§4) Ligands such as menthol and its analogs were perfused to membrane patch by a gravity-driven system (RSC-200, Bio-Logic). Bath and ligand solution were delivered through separate tubes to minimize the mixing of solutions. Patch pipette was placed in front of the perfusion tube outlet.\n(§5) Data from whole-cell recordings were analyzed in Igor Pro version 6.1 (WaveMatrix). EC50 values were derived from fitting a Hill equation to the concentration–response relationship. […] To distinguish these possibilities, dissociation constant (Kd) for ligand binding was estimated assuming the following gating scheme:1 C0↔KdC1↔LO, where L is the equilibrium constant for the final closed-to-open transition.\n(§6) To perform thermodynamic cycle analysis, Kd values of four channel-ligand combinations (WT channel, menthol: Kd _1; Mutant channel, menthol: Kd _2; WT channel, menthol analog: Kd _3; Mutant channel, menthol analog: Kd _4) were determined separately. The strength of coupling was determined by the coupling energy (kT multiplied by LnΩ, where k is the Boltzmann constant and T is temperature in Kelvin). LnΩ was calculated by Eq. (2) as[51]2 LnΩ=LnKd_1⋅Kd_4/Kd_2⋅Kd_3."}, "[2]": {"biological_target": "T2, TRPM8 R842K (Mus musculus, UniProt Q8R4D5, R842K)", "T2 construct": "expressed in transfected cells; host or cells: HEK293T", "T2 sequence (Q8R4D5 whole entry R842K)": "as the sequence (Q8R4D5 whole entry Y1005F) above, with R842K, F1005Y counted along it", "assay": "whole-cell patch-clamp and thermodynamic mutant cycle analysis", "format": "cell-based", "description": "as §1, §2, §3, §4, §5, §6"}}, "note": "Where “and” joins values, the source holds several entries; their conditions need not be identical. Identical values can stand only once. Like-named read-outs stand apart in the source and are kept apart here."}
{"smiles": "CC(C)[C@@H]1CC[C@@H](C)C[C@H]1O", "note": "[menthol, (−)-menthol]", "values": [{"measurement": "EC50", "setting": "[1]", "value": "0.498 ± 0.0087", "unit": "mM"}, {"measurement": "L (equilibrium constant between closed and open states upon ligand binding), Ave", "setting": "[2]", "value": 18.3882}, {"measurement": "L, single recording", "setting": "[2]", "value": "24.6476 and 13.2288 and 17.2882"}, {"measurement": "concentration–response curve value, ave", "setting": "[2]; 20 microM", "value": 0.01439}, {"measurement": "concentration–response curve value, ave", "setting": "[2]; 100 microM", "value": 0.2373}, {"measurement": "concentration–response curve value, single recording", "setting": "[2]; 100 microM", "value": "0.2375 and 0.1865 and 0.1541 and 0.2977 and 0.2927 and 0.2 and 0.2925"}, {"measurement": "concentration–response curve value, ave", "setting": "[2]; 500 microM", "value": 0.6774}, {"measurement": "concentration–response curve value, single recording", "setting": "[2]; 500 microM", "value": "0.6802 and 0.7221 and 0.591 and 0.6718 and 0.7751 and 0.601 and 0.7009"}, {"measurement": "concentration–response curve value, ave", "setting": "[2]; 1000 microM", "value": 0.8246}, {"measurement": "concentration–response curve value, single recording", "setting": "[2]; 1000 microM", "value": "0.892 and 0.8781 and 0.8012 and 0.8485 and 0.8182 and 0.7917 and 0.7425"}, {"measurement": "concentration–response curve value, ave", "setting": "[2]; 2000 microM", "value": 0.8146}, {"measurement": "concentration–response curve value, single recording", "setting": "[2]; 2000 microM", "value": "0.9219 and 0.8808 and 0.8026 and 0.7789 and 0.777 and 0.8121 and 0.7292"}, {"measurement": "Kd", "setting": "[2]; calculated from concentration–response curves, read-out: Kd, Ave", "value": 8.71, "unit": "mM"}, {"measurement": "Kd", "setting": "[2]; read-out: Kd, single recording", "value": "8.48 mM and 6.83 mM and 10.8 mM"}]}
